Laboratory results as given in patent publication US5912356A, “Antiviral nucleoside analogues containing a substituted benzimidazole base attached to a carbocyclic ring” (Glaxo Wellcome Inc., priority 1997, dated 1999).

Assays:
[1] = test system: Human cytomegalovirus (HCMV); experiment: Anti-HCMV plaque reduction assay in MRC5 cell monolayers; format: cell-based; settings: Human betaherpesvirus 5, 50% inhibitory concentration, MRC5 cells (human embryonic lung)
Description: Human cytomegalovirus (HCMV) is assayed in monolayers of MRC5 cells (human embryonic lung) in multiwell trays. Activity of compounds is determined in the plaque reduction assay, in which a cell monolayer is infected with a suspension of HCMV. A range of concentrations of the compound to be tested (of known molarity) is then incorporated into the carboxymethyl cellulose overlay. Plaque numbers of each concentration are expressed as percentage of the control and a dose-response curve is drawn. From this curve the 50% inhibitory concentration (IC50) is estimated.

[2] = test system: HBV; experiment: Anti-HBV assay: HBV DNA in supernatants of HBV-producing cells (HepG2 2.2.15, P5A), immunoaffinity capture, PCR and hybrid-capture detection; format: cell-based, hepatitis B virus (HBV); settings: 50 percent decrease in HBV DNA, HepG2 2.2.15, P5A cell line, two values per compound, ganciclovir (control): average of 10 values
Description: Anti-HBV activity of compounds of formula (I) and (I-1) was determined with a high-capacity assay for assessing efficacy. Supernatants from growing HBV-producing cells (HepG2 2.2.15, P5A cell line) in 96-well plates are applied to microtiter plate wells which have been coated with a specific monoclonal antibody to HBV surface antigen (HBsAg). Virus particles present in the supernatants bind to the antibody and remain immobilized while other debris is removed by washing. These virus particles are then denatured to release HBV DNA strands which are subsequently amplified by the polymerase chain reaction and detected with a calorimetric hybrid-capture assay. Quantitation is achieved through fitting of a standard curve to dilutions of a cell supernatant with known HBV DNA content. By comparing HBV DNA levels of untreated control cell supernatants with supernatants containing a compound of formula (I) or (I-1), a measure of anti-HBV effectiveness is obtained.
b. Immunoaffinity Capture of HBV:
HBV producer cells, 2500 cells/well, were seeded in 96-well culture dishes in RPMI/10% fetal bovine serum/2 mM glutamine (RPMI/10/2:). Media were replenished on days 1, 3, 5, and 7 with dilutions of a compound of formula (1) or (I-1) in RPMI/10/2 to a final volume of 150 uL. Fifty uL of mouse monoclonal anti-HBsAG antibody (10 ug/mL in PBS) were added to each well of a round-bottom microtiter plate. After incubation overnight at 4° C., the solutions were aspirated and replaced with 100 uL of 0.1% BSA in PBS. Samples were incubated for 2 hours at 37° C. and washed three times with PB S/0/01% Tween-20 (PBS/T) using a Nunc Washer. Ten uL of 0.035% Tween 20 in PBS were then added to all wells by Pro/Pette. Cell supernatants (25 uL) containing extracellular virion DNA were transferred into wells by Pro/Pette; the final Tween concentration is 0.01%. Twenty-five uL HBV standard media dilutions in RPMI/10/2 were added to 2 rows of wells to serve as an internal standard curve for quantitation, and the plates were sealed and incubated at 4° C. overnight. Samples were washed 5 times with PBS/T and 2 times with PBS, aspirating the last wash. Next, 25 uL of 0.09N NaOH/0.01% NP40 were added to each well by Pro/Pette, and the sample wells were sealed and incubated at 37° C. for 60 minutes. Samples were then neutralized with 25 uL of 0.09N HCl/100 mM tris (pH 8.3).
c. Polymerase Chain Reaction (PCR):
Polymerase chain reaction (Saiki, R. K. et al., Science, 239 (4839) 487-91 (1988)) was carried out on 5 uL samples, using a Perkin Elmer PCR kit. PCR is performed in "MicroAmp tubes" in a final volume of 25 uL. Primers were chosen from conserved regions in the HBV genome, as determined by alignment of several sequences. One primer is biotinylated at the 5-prime end to facilitate hybrid-capture detection of the PCR products. All primers were purchased from Synthecell Corp., Rockville, Md. 20850.
d. Hybrid-Capture Detection of PCR Products:
PCR products were detected with horse radish peroxidase-labeled oligonucleotide probes (Synthecell Corp., Rockville, Md. 20850), which hybridize to biotinylated strands of denatured PCR products directly in streptavidin-coated microtiter plate wells, using essentially the method of Holodiniy, M. et al., BioTechniques, 12 (1) 37-39 (1992). Modifications included the use of […] PCR reaction volumes and sodium hydroxide denaturation instead of heat. Simultaneous binding of the biotin moiety to the plate-bound streptavidin during the hybridization serves to "capture" the hybrids. Unbound labeled probes were washed away before calorimetric determination of the bound (hybridized) horse radish peroxidase. Quantities of HBV DNA present in the original samples were calculated by comparison with standards. These values were then compared to those from untreated cell cultures to determine the extent of anti-HBV activity.
IC50 (the median inhibitory concentration) is the amount of compound which produces a 50 percent decrease in HBV DNA. […]

[3] = Hepatitis B virus, HepG2 2.2.15, approximate IC50

| SMILES | IC50 [1] [nM] | IC50 [2, 3] [nM] | IC50 ([2]; approximate IC50) [nM] |
| --- | --- | --- | --- |
| OC[C@@H]1C[C@H](n2c(Br)nc3cc(Cl)c(Cl)cc32)[C@@H](O)[C@H]1O (relative stereo) [Ex. 4, (±)-(1R*, 2S*, 3S*, 5S*)-5-(2-Bromo-5,6-dichloro-1H-benzimidazol-1yl)-3-(hydroxymethyl)-1,2-cyclopentanediol] | 1900 |  |  |
| OC[C@@H]1C[C@H](n2c(NC3CC3)nc3cc(Cl)c(Cl)cc32)[C@@H](O)[C@H]1O [Ex. 32, (1R, 2S, 3S, 5S)-5-[5,6-Dichloro-2-(cyclopropylamino)-1H-benzimidazol-1-yl]-3-(hydroxymethyl)-1,2-cyclopentanediol] |  | 1300 | 790 |
| CC(C)Nc1nc2cc(Cl)c(Cl)cc2n1[C@H]1C[C@@H](CO)[C@H](O)[C@@H]1O [Ex. 33, (1R, 2S, 3S, 5S)-5-[5,6-Dichloro-2-(isopropylamino)-1H-benzimidazol-1-yl]-3-(hydroxymethyl)-1,2-cyclopentanediol] |  | 440 | 500 |
| CC(C)(C)Nc1nc2cc(Cl)c(Cl)cc2n1[C@H]1C[C@@H](CO)[C@H](O)[C@@H]1O [Ex. 40, (1R, 2S, 3S, 5S)-5-[2-(tert-Butylamino)-5,6-dichloro-1H-benzimidazol-1-yl]-3-(hydroxymethyl)-1,2-cyclopentanediol] |  |  | 1400 |
| Nc1nc(O)c2ncn(COC(CO)CO)c2n1 [ganciclovir, reference compound] |  | 1100 |  |
